Molecular target: human GLP-1R (Homo sapiens, UniProt P43220, G168S)
Assay: CHO GLP-1R Clone H6 cAMP HTRF agonist assay (Assay 1, high receptor density)
Type: cell-based
Conditions: for EC50: CHO GLP-1R clone H6, cAMP HTRF, geometric mean; for Emax: CHO GLP-1R clone H6, arithmetic mean, relative to saturating GLP-1 (1 μM), read-out: Assay 1 Emax (%)
From the text: In Table 5 and Table 6, assay data are presented to two (2) significant figures as the geometric mean (EC50s) and arithmetic mean (Emax) based on the number of replicates listed (Number). A blank cell means there was no data for that Example or the Emax was not calculated.

Sequence of human GLP-1R (P43220 24-463 G168S): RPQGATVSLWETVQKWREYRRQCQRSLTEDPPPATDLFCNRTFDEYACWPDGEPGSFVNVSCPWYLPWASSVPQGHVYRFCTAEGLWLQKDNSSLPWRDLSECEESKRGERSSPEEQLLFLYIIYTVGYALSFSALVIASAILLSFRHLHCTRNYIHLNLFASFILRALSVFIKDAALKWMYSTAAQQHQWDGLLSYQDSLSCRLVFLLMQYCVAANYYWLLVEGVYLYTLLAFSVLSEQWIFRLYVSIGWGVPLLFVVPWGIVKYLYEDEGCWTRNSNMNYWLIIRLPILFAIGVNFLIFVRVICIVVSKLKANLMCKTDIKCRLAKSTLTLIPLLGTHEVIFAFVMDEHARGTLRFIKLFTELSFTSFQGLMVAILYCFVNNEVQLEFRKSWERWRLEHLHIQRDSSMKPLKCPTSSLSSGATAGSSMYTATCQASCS

SMILES	EC50	Emax
CC(F)(F)Cn1c(CN2CCC(c3cccc(OCc4ccc(Cl)cc4F)n3)CC2)nc2ccc(C(=O)O)cc21 [Compound 302B, 2-[(4-{6-[(4-chloro-2-fluorobenzyl)oxy]pyridin-2-yl}piperidin-1-yl)methyl]-1-(2,2-difluoropropyl)-1H-benzimidazole-6-carboxylic acid]	0.13 µM	80%
O=C(O)c1ccc2nc(CN3CCC(c4cccc(OCc5ccc(Cl)cc5F)n4)CC3)n(CCn3cccn3)c2c1 [Compound 303B, 2-[(4-{6-[(4-chloro-2-fluorobenzyl)oxy]pyridin-2-yl}piperidin-1-yl)methyl]-1-[2-(1H-pyrazol-1-yl)ethyl]-1H-benzimidazole-6-carboxylic acid]	0.17 µM	
Cc1noc(CCn2c(CN3CCC(c4cccc(OCc5ccc(Cl)cc5F)n4)CC3)nc3ccc(C(=O)O)cc32)n1 [Compound 304B, 2-[(4-{6-[(4-chloro-2-fluorobenzyl)oxy]pyridin-2-yl}piperidin-1-yl)methyl]-1-[2-(3-methyl-1,2,4-oxadiazol-5-yl)ethyl]-1H-benzimidazole-6-carboxylic acid]	0.19 µM	74%
O=C(O)c1ccc2nc(CN3CCC(c4cccc(OCc5ccc(Cl)cc5F)n4)CC3)n(CCN3CCCOC3=O)c2c1 [Compound 305B, 2-[(4-{6-[(4-chloro-2-fluorobenzyl)oxy]pyridin-2-yl}piperidin-1-yl)methyl]-1-[2-(2-oxo-1,3-oxazinan-3-yl)ethyl]-1H-benzimidazole-6-carboxylic acid]	0.19 µM	86%
Cn1cc(CCn2c(CN3CCC(c4cccc(OCc5ccc(Cl)cc5F)n4)CC3)nc3ccc(C(=O)O)cc32)cn1 [Compound 307B, 2-[(4-{6-[(4-chloro-2-fluorobenzyl)oxy]pyridin-2-yl}piperidin-1-yl)methyl]-1-[2-(1-methyl-1H-pyrazol-4-yl)ethyl]-1H-benzimidazole-6-carboxylic acid]	0.21 µM	77%
Cn1ncnc1Cn1c(CN2CCC(c3cccc(OCc4ccc(Cl)cc4F)n3)CC2)nc2ccc(C(=O)O)cc21 [Compound 308B, 2-[(4-{6-[(4-chloro-2-fluorobenzyl)oxy]pyridin-2-yl}piperidin-1-yl)methyl]-1-[(1-methyl-1H-1,2,4-triazol-5-yl)methyl]-1H-benzimidazole-6-carboxylic acid]	0.29 µM	74%
CN1CCC[C@@H]1Cn1c(CN2CCC(c3cccc(OCc4ccc(Cl)cc4F)n3)CC2)nc2ccc(C(=O)O)cc21 [Compound 309B, 2-[(4-{6-[(4-chloro-2-fluorobenzyl)oxy]pyridin-2-yl}piperidin-1-yl)methyl]-1-{[(2R)-1-methylpyrrolidin-2-yl]methyl}-1H-benzimidazole-6-carboxylic acid]	0.3 µM	66%
Cc1cc(Cn2c(CN3CCC(c4cccc(OCc5ccc(Cl)cc5F)n4)CC3)nc3ccc(C(=O)O)cc32)no1 [Compound 310B, 2-[(4-{6-[(4-chloro-2-fluorobenzyl)oxy]pyridin-2-yl}piperidin-1-yl)methyl]-1-[(5-methyl-1,2-oxazol-3-yl)methyl]-1H-benzimidazole-6-carboxylic acid]	0.32 µM	79%
Cn1cc(Cn2c(CN3CCC(c4cccc(OCc5ccc(Cl)cc5F)n4)CC3)nc3ccc(C(=O)O)cc32)nn1 [Compound 311B, 2-[(4-{6-[(4-chloro-2-fluorobenzyl)oxy]pyridin-2-yl}piperidin-1-yl)methyl]-1-[(1-methyl-1H-1,2,3-triazol-4-yl)methyl]-1H-benzimidazole-6-carboxylic acid]	0.35 µM	71%
O=C(O)c1ccc2nc(CN3CCC(c4cccc(OCc5ccc(Cl)cc5F)n4)CC3)n(Cc3cnc[nH]3)c2c1 [Compound 312B, 2-[(4-{6-[(4-chloro-2-fluorobenzyl)oxy]pyridin-2-yl}piperidin-1-yl)methyl]-1-(1H-imidazol-5-ylmethyl)-1H-benzimidazole-6-carboxylic acid]	0.38 µM	68%

Reference: patent US20250235460A1, “COMBINATION THERAPY USING GLUCOSE-DEPENDENT INSULINOTROPIC POLYPEPTIDE RECEPTOR ANTAGONIST COMPOUNDS AND GLP-1 RECEPTOR AGONIST COMPOUNDS” (Pfizer Inc., priority 2024, published 2025)
